Data reported in patent US20110301169A1, “Therapies for Treating Cancer Using Combinations of COX-2 Inhibitors and Antimetabolites” (priority 2007, published 2011).

Assays:
[1] = system: human breast cancer cells (SK-BR-3); test: SK-BR-3 model, tumor volume; format: in vivo, nude mice; settings: COX-2 inhibitor in the diet, trastuzumab intravenously
Procedure: Mice are injected subcutaneously in the left paw (1×10^6 tumor cells suspended in 30% Matrigel) and tumor volume is evaluated using a phlethysmometer twice a week for 30-60 days. Implantation of human breast cancer cells (SK-BR-3) into nude mice produces tumors that will reach 0.6-2 ml between 30-50 days. […] The data is expressed as the mean+/−SEM. Student's and Mann-Whitney tests are used to assess differences between means using the InStat software package.
The efficacy of both agents are determined by measuring tumor volume.
B. In a second assay, mice injected with SK-BR-3 cancer cells are then treated with 5-FU on days 12 through 15. […] The efficacy of both agents are determined by measuring tumor volume.

[2] = molecular target: HER2 [ErbB2] (Homo sapiens, UniProt P04626); settings: cited from earlier work
[3] = system: MX1 (ER−, erbB2−) breast carcinoma; test: MX1 human breast carcinoma xenograft, tumor growth delay (Example 11); format: in vivo, female athymic nude mice; settings: alone
Procedure: The compound was administered orally on a continuous daily regimen in female athymic nude mice bearing established sc-implanted xenografts.

[4] = Oral pharmacokinetics in rodents; format: in vivo, mice, rats
Procedure: (§1) Peak plasma concentrations were achieved between 1 and 3 hours after a dose of 5 mg/kg.

[5] = Oral pharmacokinetics in dogs; format: in vivo; settings: dog, plasma, 5 mg/kg, read-out: elimination half life (t1/2)
Procedure: as §1

[6] = Oral pharmacokinetics in monkeys; format: in vivo; settings: monkey, plasma, 5 mg/kg, read-out: elimination half life (t1/2) (converted)
Procedure: as §1

[7] = clinical; settings: human, in vivo
Procedure: as §1

[8] = human, in vivo
[9] = system: BT474 tumor; test: BT474 model, tumor growth delay (Example 9); format: in vivo, Female SCID mice; settings: Groups 3, 4: 30 mg/kg, po, qd to end
Procedure: Female SCID mice were injected subcutaneously in the flank (1 mm^3 BT474 tumor) and tumor volume was evaluated using a caliper twice a week for up to 90 days, longer for responders. Upon reaching an average tumor size of 100-200 mg the treatment was begun. […] The endpoint for the study was when tumor volume reached 0.75 gins or 90 days, which ever came first.

[10] = third assay (C): 5-FU i.p. 50 mg/kg on days 14 through 17

HER2 [ErbB2], sequence (P04626 23-1255): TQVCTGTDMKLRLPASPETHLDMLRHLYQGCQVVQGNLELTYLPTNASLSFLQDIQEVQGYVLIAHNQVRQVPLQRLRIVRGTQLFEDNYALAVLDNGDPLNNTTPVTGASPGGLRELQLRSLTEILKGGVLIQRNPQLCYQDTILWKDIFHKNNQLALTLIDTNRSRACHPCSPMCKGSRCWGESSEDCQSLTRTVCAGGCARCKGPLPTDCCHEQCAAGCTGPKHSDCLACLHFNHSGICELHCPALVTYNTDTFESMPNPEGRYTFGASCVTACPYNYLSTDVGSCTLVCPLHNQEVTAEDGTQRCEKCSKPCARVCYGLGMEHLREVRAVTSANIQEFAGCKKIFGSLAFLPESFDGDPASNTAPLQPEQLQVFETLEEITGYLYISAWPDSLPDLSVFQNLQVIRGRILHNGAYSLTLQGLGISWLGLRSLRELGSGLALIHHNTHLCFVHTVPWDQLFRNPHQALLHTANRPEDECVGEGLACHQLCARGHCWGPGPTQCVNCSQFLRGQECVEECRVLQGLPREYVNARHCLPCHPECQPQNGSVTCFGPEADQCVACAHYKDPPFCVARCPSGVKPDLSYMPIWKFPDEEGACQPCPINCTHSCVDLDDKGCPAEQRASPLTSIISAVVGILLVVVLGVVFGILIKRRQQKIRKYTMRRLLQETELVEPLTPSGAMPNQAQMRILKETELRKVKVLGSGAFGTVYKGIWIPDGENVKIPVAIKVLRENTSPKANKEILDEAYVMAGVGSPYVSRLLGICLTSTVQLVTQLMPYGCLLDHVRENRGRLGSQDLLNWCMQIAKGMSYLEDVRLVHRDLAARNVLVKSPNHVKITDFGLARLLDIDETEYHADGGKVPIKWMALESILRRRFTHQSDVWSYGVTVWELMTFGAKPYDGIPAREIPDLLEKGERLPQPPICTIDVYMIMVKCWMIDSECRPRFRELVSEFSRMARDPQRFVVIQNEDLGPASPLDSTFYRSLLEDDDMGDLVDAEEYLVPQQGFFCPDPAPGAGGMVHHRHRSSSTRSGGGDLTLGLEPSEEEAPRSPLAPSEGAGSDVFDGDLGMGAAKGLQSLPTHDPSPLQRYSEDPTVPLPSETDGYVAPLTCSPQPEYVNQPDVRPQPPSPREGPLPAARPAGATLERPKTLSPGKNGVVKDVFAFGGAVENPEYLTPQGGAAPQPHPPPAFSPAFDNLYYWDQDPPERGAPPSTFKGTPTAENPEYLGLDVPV

O=c1[nH]cc(F)c(=O)[nH]1 [5-FU]
reduction in tumor volume ([1]; second assay (B): 5-FU i.p. 50 mg/kg on days 12-15): 61%
reduction in tumor volume [1, 10]: 35%

COCC(=O)NC/C=C/c1ccc2ncnc(Nc3ccc(Oc4ccc(C)nc4)c(C)c3)c2c1 [CP-724,714]
Ki [2]: 7 nM

Nc1nc2[nH]cc(CCc3ccc(C(=O)N[C@@H](CCC(=O)[O-])C(=O)[O-])cc3)c2c(=O)[nH]1.[Na+].[Na+] [pemetrexed]
TGD (in words) [3]: no TGD

Cc1onc(-c2ccccc2)c1-c1ccc(S(N)(=O)=O)cc1 [valdecoxib]
reduction in tumor volume [1, 10]: 69%

CCOc1ccc(-c2cc(C)cn2-c2ccc(S(N)(=O)=O)cc2)cc1
half-life ([4]; mouse, rat, plasma, po, 5 mg/kg, rodents, read-out: elimination half life (t1/2)): 4 to 5 h
Oral availability ([4]; rodent, compared with dogs and monkeys): greatest in rodent
half-life [5]: 4 to 5 h
half-life [6]: ~2 h
half-life [7]: 15 to 18 h
gastric or duodenal toxicity [8]: no increase in gastric or duodenal toxicity compared to placebo

Cc1ccc(-c2cc(C(F)(F)F)nn2-c2ccc(S(N)(=O)=O)cc2)cc1 [celecoxib]
% tumor growth delay [9]: −28%
Median Total Time to Endpoint [9]: 27.5 days
Difference from control ([9]; difference in median time to endpoint): −10.7
